According to patent publication US20260022142A1, “MACROCYCLIC IMMUNOMODULATORS” (Bristol-Myers Squibb Company, priority 2022, published 2026):
Bridge positions count the residues as written; N and C are the ends. Square brackets hold non-standard residues; d marks the D form. Peptide text beside a SMILES is read from it. * marks the point of attachment. ξ: configuration not given here. Phe(3-CF3) = N[C@@H](Cc1cccc(C(F)(F)F)c1)C(=O)O; Phe(4-COOH) = N[C@@H](Cc1ccc(C(=O)O)cc1)C(=O)O; Bip = N[C@@H](Cc1ccc(-c2ccccc2)cc1)C(=O)O; Phe(4-NH2) = Nc1ccc(C[C@H](N)C(=O)O)cc1; NH(CH2)14COOH = O=C(O)CCCCCCCCCCCCCCN*; Phe(3-Me) = Cc1cccc(C[C@H](N)C(=O)O)c1; His(π-Me) = Cn1cncc1C[C@H](N)C(=O)O; Val(3-OH) = CC(C)(O)[C@H](N)C(=O)O; hArg = N=C(N)NCCCC[C@H](N)C(=O)O; 4Pal = N[C@@H](Cc1ccncc1)C(=O)O; Cha = N[C@@H](CC1CCCCC1)C(=O)O; Thr(3ξ) = CC(O)[C@H](N)C(=O)O; PEG4 = NCCOCCOCCOCCOCCC(=O)O; 12Ado = NCCCCCCCCCCCC(=O)O; Carboxymethyl = O=C(O)C*; Orn = NCCC[C@H](N)C(=O)O; Pra = C#CC[C@H](N)C(=O)O; Aun = NCCCCCCCCCCC(=O)O; Dab = NCC[C@H](N)C(=O)O; Nva = CCC[C@H](N)C(=O)O; Dap = NC[C@H](N)C(=O)O; AEEA = NCCOCCOCC(=O)O

target: T1, PD-1/PD-L1 interaction (PE-labeled human PD-L1-Ig binding to Jurkat cell line over-expressing human PD-1) (Homo sapiens, UniProt Q15116); test: Jurkat-PD-1 Cell Binding High-Content Screening Assay (CBA); format: cell-based; settings: Jurkat cell line over-expressing human PD-1; PE-labeled PD-L1-Ig 20 nM final; read-out: Jurkat hPD1-PDL1 IC50
T1 construct: expressed in transfected cells; host or cells: Jurkat
T1 sequence (Q15116 25-288): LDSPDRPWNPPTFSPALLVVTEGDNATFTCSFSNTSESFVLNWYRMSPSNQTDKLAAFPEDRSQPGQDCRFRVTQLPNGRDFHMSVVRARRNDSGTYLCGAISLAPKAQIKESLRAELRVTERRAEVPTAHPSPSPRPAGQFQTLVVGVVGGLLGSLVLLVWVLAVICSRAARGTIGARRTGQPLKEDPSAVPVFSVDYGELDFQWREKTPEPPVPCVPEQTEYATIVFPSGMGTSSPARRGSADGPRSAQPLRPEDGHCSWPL
Method in brief: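 Jurkat-hPD-1 cells, DMEM/10% FCS; cpd 2 h 37° C; PE-PD-L1-Ig 20 nM final, 1 h; 4% PFA fix + Hoechst 33342, 3× dPBS wash; high-content imaging read-out.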

| Compound | IC50 |
| --- | --- |
| Cc1cccc(C[C@@H]2NC(=O)[C@H](CC(=O)O)NC(=O)[C@H](Cc3ccc(OCC(=O)O)cc3)NC(=O)[C@H](Cc3cncn3C)NC(=O)CSC[C@@H](C(=O)N[C@@H](CCN)C(=O)NCCCCCCCCCCC(=O)O)NC(=O)[C@H]([C@@H](C)O)NC(=O)[C@H](C(C)C)NC(=O)[C@H](CC3CCCCC3)NC(=O)[C@H](CCN)NC(=O)[C@@H](CC(C)C)NC(=O)[C@H](CCCN)NC(=O)[C@H](Cc3ccc(OCC(=O)O)cc3)NC(=O)[C@H](Cc3ccc(-c4ccccc4)cc3)NC(=O)[C@H](Cc3ccc(OCC(=O)O)cc3)NC2=O)c1 [Compound 2148] ({CH2CO}-[His(π-Me)]Y(Carboxymethyl)D[Phe(3-Me)]Y(Carboxymethyl)[Bip]Y(Carboxymethyl)[Orn][dL][Dab][Cha]VTC[Dab][Aun]-OH; thioether N-14) | 25.4 nM |
| Cc1cccc(C[C@@H]2NC(=O)[C@H](CC(=O)O)NC(=O)[C@H](Cc3ccc(OCC(=O)O)cc3)NC(=O)[C@H](CN)NC(=O)CSC[C@@H](C(=O)N[C@@H](CCN)C(=O)NCCOCCOCC(=O)NCCCCCCCCCCC(=O)O)NC(=O)[C@H](CCCN)NC(=O)[C@H](C(C)C)NC(=O)[C@H](CC3CCCCC3)NC(=O)[C@H](CCN)NC(=O)[C@@H](CC(C)C)NC(=O)[C@H](CCCN)NC(=O)[C@H](Cc3ccc(C(=O)O)cc3)NC(=O)[C@H](Cc3ccc(-c4ccccc4)cc3)NC(=O)[C@H](C(C)C)NC2=O)c1 [Compound 2062] ({CH2CO}-[Dap]Y(Carboxymethyl)D[Phe(3-Me)]V[Bip][Phe(4-COOH)][Orn][dL][Dab][Cha]V[Orn]C[Dab][AEEA][Aun]-OH; thioether N-14) | 7 nM |
| CCC[C@@H]1NC(=O)CSC[C@@H](C(=O)N[C@@H](CCN)C(=O)NCCOCCOCCOCCOCCC(=O)NCCCCCCCCCCCCCCC(=O)O)NC(=O)[C@H](CO)NC(=O)[C@H](C(C)(C)O)NC(=O)[C@H](CC2CCCCC2)NC(=O)[C@H](CCN)NC(=O)[C@@H](CC(C)C)NC(=O)[C@H](CCCN)NC(=O)[C@H](Cc2ccc(OCC(=O)O)cc2)NC(=O)[C@H](Cc2ccc(-c3ccccc3)cc2)NC(=O)[C@H](Cc2ccc(OCC(=O)O)cc2)NC(=O)[C@H](Cc2cccc(C(F)(F)F)c2)NC(=O)[C@H](CC(=O)O)NC(=O)[C@H](Cc2ccc(C(=O)O)cc2)NC1=O [Compound 2902] ({CH2CO}-[Nva][Phe(4-COOH)]D[Phe(3-CF3)]Y(Carboxymethyl)[Bip]Y(Carboxymethyl)[Orn][dL][Dab][Cha][Val(3-OH)]SC[Dab][PEG4]-{NH(CH2)14COOH}; thioether N-14) | 282 nM |
| C#CC[C@H](NC(=O)COCCOCCNC(=O)[C@H](CCCN)NC(=O)[C@@H]1CSCC(=O)N[C@@H](Cc2ccncc2)C(=O)N[C@@H](Cc2ccc(OCC(=O)O)cc2)C(=O)N[C@@H](CC(=O)O)C(=O)N[C@@H](Cc2c[nH]c3ccccc23)C(=O)N[C@@H](C(C)C)C(=O)N[C@@H](Cc2ccc(-c3ccccc3)cc2)C(=O)N[C@@H]([C@@H](C)CC)C(=O)N[C@@H](CCCN)C(=O)N[C@H](CC(C)C)C(=O)N[C@@H](CCN)C(=O)N[C@@H](CC(C)C)C(=O)N[C@@H](C(C)C)C(=O)N[C@@H]([C@@H](C)O)C(=O)N1)C(=O)N[C@@H](CN)C(=O)NCCCCCCCCCCC(=O)O [Compound 1199] ({CH2CO}-[4Pal]Y(Carboxymethyl)DWV[Bip]I[Orn][dL][Dab]LVTC[Orn][AEEA][Pra][Dap][Aun]-OH; thioether N-14) | 13.3 nM |
| Cc1cccc(C[C@@H]2NC(=O)[C@H](CC(=O)O)NC(=O)[C@H](Cc3ccc(OCC(=O)O)cc3)NC(=O)[C@H](CN)NC(=O)CSC[C@@H](C(=O)N[C@@H](C)C(=O)N[C@@H](CN)C(=O)NCCCCCCCCCCC(=O)O)NC(=O)[C@H]([C@@H](C)O)NC(=O)[C@H](C(C)C)NC(=O)[C@H](CC3CCCCC3)NC(=O)[C@H](Cc3cnc[nH]3)NC(=O)[C@@H](CC(C)C)NC(=O)[C@H](CCCN)NC(=O)[C@H](C(C)C)NC(=O)[C@H](Cc3ccc(-c4ccccc4)cc3)NC(=O)[C@H](C(C)C)NC2=O)c1 [Compound 1111] ({CH2CO}-[Dap]Y(Carboxymethyl)D[Phe(3-Me)]V[Bip]V[Orn][dL]H[Cha]VTCA[Dap][Aun]-OH; thioether N-14) | 64.2 nM |
| CC(C)C[C@H]1NC(=O)[C@H](CCCN)NC(=O)[C@H](C(C)C)NC(=O)[C@H](Cc2ccc(-c3ccccc3)cc2)NC(=O)[C@H](C(C)C)NC(=O)[C@H](Cc2c[nH]c3ccccc23)NC(=O)[C@H](CC(=O)O)NC(=O)[C@H](Cc2ccc(OCC(=O)O)cc2)NC(=O)[C@H](CN)NC(=O)CSC[C@@H](C(=O)NCCOCCOCC(=O)N[C@H](Cc2cnc[nH]2)C(=O)NCCCCCCCCCCC(=O)O)NC(=O)[C@H]([C@@H](C)O)NC(=O)[C@H](C(C)C)NC(=O)[C@H](CC2CCCCC2)NC(=O)[C@H](Cc2cnc[nH]2)NC1=O [Compound 1135] ({CH2CO}-[Dap]Y(Carboxymethyl)DWV[Bip]V[Orn][dL]H[Cha]VTC[AEEA][dH][Aun]-OH; thioether N-14) | 81.1 nM |

Results, then the compound that gave them:

| IC50 | Compound |
| --- | --- |
| 8.4 nM | Cc1cccc(C[C@@H]2NC(=O)[C@H](CC(=O)O)NC(=O)[C@H](Cc3ccc(OCC(=O)O)cc3)NC(=O)[C@H](CCN)NC(=O)CSC[C@@H](C(=O)N[C@@H](CCN)C(=O)NCCCCCCCCCCC(=O)O)NC(=O)[C@H](CO)NC(=O)[C@H](C(C)(C)O)NC(=O)[C@H](CC3CCCCC3)NC(=O)[C@H](CCN)NC(=O)[C@@H](CC(C)C)NC(=O)[C@H](CCCN)NC(=O)[C@H](Cc3ccc(OCC(=O)O)cc3)NC(=O)[C@H](Cc3ccc(-c4ccccc4)cc3)NC(=O)[C@H](Cc3ccc(OCC(=O)O)cc3)NC2=O)c1 [Compound 3629] ({CH2CO}-[Dab]Y(Carboxymethyl)D[Phe(3-Me)]Y(Carboxymethyl)[Bip]Y(Carboxymethyl)[Orn][dL][Dab][Cha][Val(3-OH)]SC[Dab][Aun]-OH; thioether N-14) |
| 30.6 nM | CC(C)C[C@H]1NC(=O)[C@H](CCCN)NC(=O)[C@H](C(C)C)NC(=O)[C@H](Cc2ccc(-c3ccccc3)cc2)NC(=O)[C@H](C(C)C)NC(=O)[C@H](Cc2c[nH]c3ccccc23)NC(=O)[C@H](CC(=O)O)NC(=O)[C@H](Cc2ccc(OCC(=O)O)cc2)NC(=O)[C@H](CCCCNC(=N)N)NC(=O)CSC[C@@H](C(=O)NCCOCCOCC(=O)N[C@@H](CCCCN)C(=O)NCCCCCCCCCCCC(=O)O)NC(=O)[C@H](C(C)O)NC(=O)[C@H](C(C)C)NC(=O)[C@H](CC2CCCCC2)NC(=O)[C@H](CCN)NC1=O (stereo partly drawn) [Compound 3165] ({CH2CO}-[hArg]Y(Carboxymethyl)DWV[Bip]V[Orn][dL][Dab][Cha]V[Thr(3ξ)]C[AEEA]K[12Ado]-OH; thioether N-14) |
| 23.1 nM | CC(=O)NCCCC[C@@H]1NC(=O)[C@H](Cc2cccc(C)c2)NC(=O)[C@H](CC(=O)O)NC(=O)[C@H](Cc2ccc(OCC(=O)O)cc2)NC(=O)[C@H](Cc2ccc(NC(C)=O)cc2)NC(=O)CSC[C@@H](C(=O)N[C@@H](CCN)C(=O)NCCCCCCCCCCC(=O)O)NC(=O)[C@H](C(C)O)NC(=O)[C@H](C(C)C)NC(=O)[C@H](CC2CCCCC2)NC(=O)[C@H](CCN)NC(=O)[C@@H](CC(C)C)NC(=O)[C@H](CCCN)NC(=O)[C@H](CCCCNC(C)=O)NC(=O)[C@H](Cc2ccc(-c3ccccc3)cc2)NC1=O (stereo partly drawn) [Compound 3602] ({CH2CO}-[Phe(4-NH2)](Ac)Y(Carboxymethyl)D[Phe(3-Me)]K(Ac)[Bip]K(Ac)[Orn][dL][Dab][Cha]V[Thr(3ξ)]C[Dab][Aun]-OH; thioether N-14) |
